# Test system: HBsAg in HepG2.2.15 cells
# Assay: HBsAg assay: inhibition of HBsAg in HepG2.2.15 cells (chemiluminescence immunoassay of supernatant)
# Format: cell-based, hepatitis B virus
# Details: Hepatitis B virus, HepG2.2.15, 144 h, read-out: sAg EC50, HepG2.2.15 cells, supernatant collected at day 6 after exposure, HBsAg CLIA
# Experimental: Inhibition of HBsAg was determined in HepG2.2.15 cells. Cells were maintained in culture medium containing 10% fetal calf serum, […], Glutamine, penicillin/streptomycin. Cells were seeded in 96-well collagen-coated plate at a density of 30,000 cells/well. Serially diluted compounds were added to cells next day at the final DMSO concentration of 0.5%. Cells were incubated with compounds for 2-3 days, after which medium was removed. Fresh medium containing compounds was added to cells for additional 3-4 days. At day 6 after exposure of compounds, supernatant was collected, the HBsAg immunoassay (microplate-based chemiluminescence immunoassay kits, CLIA, Autobio Diagnosics Co., Zhengzhou, China, Catalog #CL0310-2) was used to determine the level of HBsAg according to manufactory instruction. Dose-response curves were generated and the EC50 value (effective concentrations that achieved 50% inhibitory effect) were determined using XLfit software. In addition, cells were seeded at a density of 5,000 cells/well for determination of cell viability in the presence and absence of compounds by using CellTiter-Glo reagent (Promega).
row,SMILES,EC50
1,"CCC1c2cc(F)c(O)cc2CN1c1nc(-c2ncccn2)ncc1F (stereo not shown) [Example 75, 1-Ethyl-6-fluoro-2-(5-fluoro-[2,2′-bipyrimidin]-4-yl)isoindolin-5-ol]",700 nM
2,"CCC1c2ccccc2CCN1c1cnc2c(NC)nccc2c1 (stereo not shown) [Example 124, 3-(1-Ethyl-3,4-dihydroisoquinolin-2(1H)-yl)-N-methyl-1,7-naphthyridin-8-amine]",22000 nM
3,"CCC1c2cc(OC)c(F)c(F)c2CCN1c1ccnc(-c2ncccn2)n1 (stereo not shown) [Example 47, 1-Ethyl-5,6-difluoro-7-methoxy-2-(2-pyrimidin-2-ylpyrimidin-4-yl)-3,4-dihydro-1H-isoquinoline]",480 nM
4,"CCC1c2ccc(OC)c(OC)c2CCN1c1cnc(-c2ncccn2)nc1 (stereo not shown) [Example 28, 2-([2,2′-Bipyrimidin]-5-yl)-1-ethyl-5,6-dimethoxy-1,2,3,4 Tetrahydroisoquinoline]",180 nM
5,"CCC1c2c(OC)ccc(F)c2CCN1c1cnc(-c2ncccn2)nc1 (stereo not shown) [Example 35, 1-Ethyl-5-fluoro-8-methoxy-2-(2-pyrimidin-2-ylpyrimidin-5-yl)-3,4-dihydro-1H-isoquinoline]",620 nM
6,"CCC1c2cc(F)c(OC)cc2CN1c1cnc(C(=O)NS(C)(=O)=O)nc1 (stereo not shown) [Example 101, 5-(1-Ethyl-6-fluoro-5-methoxyisoindolin-2-yl)-N-(methylsulfonyl)pyrimidine-2-carboxamide]",650 nM
7,"CCC1c2cc(OC)c(OC)cc2CN1c1cnc(C(=O)O)nc1 (stereo not shown) [Example 97, 5-(1-Ethyl-5,6-dimethoxyisoindolin-2-yl)pyrimidine-2-carboxylic Acid]",5000 nM
8,"CCC1c2cc(F)c(F)cc2CN1c1ccnc(-c2ncccn2)n1 (stereo not shown) [Example 48, 2-([2,2′-Bipyrimidin]-4-yl)-1-ethyl-5,6-difluoroisoindoline]",92 nM
9,"CCC1c2ccc(F)c(F)c2CCN1c1ccnc(-c2ncccn2)n1 (stereo not shown) [Example 39, 1-Ethyl-5,6-difluoro-2-(2-pyrimidin-2-ylpyrimidin-4-yl)-3,4-dihydro-1H-isoquinoline]",590 nM
10,"CCC1c2cc(F)c(OC)cc2CN1c1ccnc(C(=O)NS(C)(=O)=O)n1 (stereo not shown) [Example 104, 4-(1-Ethyl-6-fluoro-5-methoxyisoindolin-2-yl)-N-(methylsulfonyl)pyrimidine-2-carboxamide]",5000 nM
11,"O=c1[nH]cccc1-c1nccc(N2CCc3cc(F)c(F)cc3C2)n1 [Example 111, 3-[4-(6,7-Difluoro-3,4-dihydro-1H-isoquinolin-2-yl)pyrimidin-2-yl]pyridin-2-ol]",46000 nM
12,"CCC1c2cc(F)c(OC)cc2CN1c1cnc(C(=O)Nc2nccn2C)nc1 (stereo not shown) [Example 105, 5-(1-Ethyl-6-fluoro-5-methoxyisoindolin-2-yl)-N-(1-methyl-1H-imidazol-2-yl)pyrimidine-2-carboxamide]",6000 nM
13,"CCC1c2cc(F)c(F)cc2CCN1c1cnc(-c2ncccn2)nc1 (stereo not shown) [Example 25, 2-([2,2′-Bipyrimidin]-5-yl)-1-ethyl-6,7-difluoro-1,2,3,4-tetrahydroisoquinoline]",85 nM
14,"CCC1c2ccc(F)c(F)c2CCN1c1cnc(C(=O)O)nc1 (stereo not shown) [Example 113, 5-(1-Ethyl-5,6-difluoro-3,4-dihydro-1H-isoquinolin-2-yl)pyrimidine-2-carboxylic Acid]",2000 nM
15,"CCC1c2cc(OC)c(OC)cc2CN1c1nc(-c2ncccn2)nc2c1COC2 (stereo not shown) [Example 92, 4-(1-Ethyl-5,6-dimethoxyisoindolin-2-yl)-2-(pyrimidin-2-yl)-5,7-dihydrofuro[3,4-d]pyrimidine]",180 nM
16,"CCC1c2ccccc2CCN1c1cnc(-c2ncccn2)nc1 (stereo not shown) [Example 10, 2-([2,2′-Bipyrimidin]-5-yl)-1-ethyl-1,2,3,4-tetrahydroisoquinoline]",250 nM
17,"CC1c2ccc(F)c(F)c2CCN1c1ccnc(-c2ncccn2)n1 (stereo not shown) [Example 36, 2-([2,2′-Bipyrimidin]-4-yl)-5,6-difluoro-1-methyl-1,2,3,4-tetrahydroisoquinoline]",480 nM
18,"CCC1c2cc(F)c(OC)cc2CCN1c1cnc2c(=O)n(C)cnc2c1 (stereo not shown) [Example 125, 7-(1-Ethyl-7-fluoro-6-methoxy-3,4-dihydroisoquinolin-2(1H)-yl)-3-methylpyrido[3,2-d]pyrimidin-4(3H)-one]",1600 nM
19,"FC(F)(F)c1cccc2c1CN(c1cnc(-c3ncccn3)nc1)C2 [Example 14, 2-([2,2′-Bipyrimidin]-5-yl)-4-(trifluoromethyl)isoindoline]",25000 nM
20,"Fc1cnc(-c2ncccn2)nc1N1CC2CCC1c1ccccc12 (stereo not shown) [Example 80, 10-(5-Fluoro-[2,2′-bipyrimidin]-4-yl)-1,2,3,4-tetrahydro-1,4-(epiminomethano)naphthalene]",700 nM

# Same assay, conditions: read-out: sAg EC50; HepG2.2.15 cells, supernatant collected at day 6 after exposure, HBsAg CLIA
row,SMILES,EC50
1,"CCC1c2cc(OC)c(F)c(F)c2CCN1c1cnc(-c2ncccn2)nc1 (single isomer, unassigned) [Example 31, 1-Ethyl-5,6-difluoro-7-methoxy-2-(2-pyrimidin-2-ylpyrimidin-5-yl)-3,4-dihydro-1H-isoquinoline]",1200 nM
2,"CCC1c2cc(F)c(OC)cc2CN1c1nc(-c2ncccn2)ncc1C (single isomer, unassigned) [Example 69, 1-Ethyl-6-fluoro-5-methoxy-2-(5-methyl-[2,2′-bipyrimidin]-4-yl)isoindoline]",59 nM
3,"CCC1c2ccccc2CCN1c1cnc(-c2ncccn2)nc1 (single isomer, unassigned) [Example 11, 2-([2,2′-Bipyrimidin]-5-yl)-1-ethyl-1,2,3,4-tetrahydroisoquinoline]",1400 nM
4,"CCC1c2ccc(F)c(F)c2CCN1c1ccnc(-c2ncccn2)n1 (single isomer, unassigned) [Example 41, 1-Ethyl-5,6-difluoro-2-(2-pyrimidin-2-ylpyrimidin-4-yl)-3,4-dihydro-1H-isoquinoline]",2600 nM
5,"CCC1c2cc(F)c(OC)cc2CN1c1cnc(C(=O)Nc2ccccn2)nc1 (single isomer, unassigned) [Example 107, 5-(1-Ethyl-6-fluoro-5-methoxyisoindolin-2-yl)-N-(pyridin-2-yl)pyrimidine-2-carboxamide]",49000 nM
6,"CCC1c2c(OC)ccc(F)c2CCN1c1ccnc(-c2ncccn2)n1 (single isomer, unassigned) [Example 43, 1-Ethyl-5-fluoro-8-methoxy-2-(2-pyrimidin-2-ylpyrimidin-4-yl)-3,4-dihydro-1H-isoquinoline]",60 nM
7,"CCC1c2ccc(F)c(F)c2CCN1c1ccnc(-c2ncccn2)n1 (single isomer, unassigned) [Example 40, 1-Ethyl-5,6-difluoro-2-(2-pyrimidin-2-ylpyrimidin-4-yl)-3,4-dihydro-1H-isoquinoline]",500 nM
8,"CCC1c2cc(F)c(OC)cc2CN1c1cnc(C(=O)O)nc1 (single isomer, unassigned) [Example 100, 5-(1-Ethyl-6-fluoro-5-methoxyisoindolin-2-yl)pyrimidine-2-carboxylic Acid]",200 nM
9,"CCC1c2cc(F)c(OC)cc2CCN1c1ccnc(-c2ncccn2)n1 (single isomer, unassigned) [Example 128, 2-(2,2′-Bipyrimidin-4-yl)-1-ethyl-7-fluoro-6-methoxy-1,2,3,4-tetrahydroisoquinoline]",82 nM
10,"CCC1c2ccccc2CCN1c1cnc(-c2ncccn2)nc1 (single isomer, unassigned) [Example 12, 2-([2,2′-Bipyrimidin]-5-yl)-1-ethyl-1,2,3,4-tetrahydroisoquinoline]",190 nM
11,"CCC1c2cc(F)c(OC)cc2CN1c1cnc(-c2ncccn2)nc1 (single isomer, unassigned) [Example 90, 2-([2,2′-Bipyrimidin]-5-yl)-1-ethyl-6-fluoro-5-methoxyisoindoline]",260 nM
12,"CCC1c2cc(F)c(OC)cc2CN1c1cnc(C(=O)O)nc1 (single isomer, unassigned) [Example 99, 5-(1-Ethyl-6-fluoro-5-methoxyisoindolin-2-yl)pyrimidine-2-carboxylic Acid]",7000 nM
13,"CCC1c2cc(F)c(OC)cc2CN1c1ccnc(C(=O)NC)n1 (single isomer, unassigned) [Example 109, 4-(1-Ethyl-6-fluoro-5-methoxyisoindolin-2-yl)-N-methylpyrimidine-2-carboxamide]",42000 nM
14,"CCC1c2cc(F)c(OC)cc2CCN1c1ccnc(-c2ncccn2)n1 (single isomer, unassigned) [Example 129, 2-(2,2′-Bipyrimidin-4-yl)-1-ethyl-7-fluoro-6-methoxy-1,2,3,4-tetrahydroisoquinoline]",15 nM
15,"CC1c2ccc(F)c(F)c2CCN1c1ccnc(-c2ncccn2)n1 (single isomer, unassigned) [Example 37, 2-([2,2′-Bipyrimidin]-4-yl)-5,6-difluoro-1-methyl-1,2,3,4-tetrahydroisoquinoline]",310 nM
16,"CCC1c2cc(F)c(OC)cc2CCN1c1cnc(C(=O)O)nc1 (single isomer, unassigned) [Example 114, 5-(1-Ethyl-7-fluoro-6-methoxy-3,4-dihydro-1H-isoquinolin-2-yl)pyrimidine-2-carboxylic Acid]",57 nM
17,"CCC1c2cc(F)c(OC)cc2CN1c1cnc(C(=O)Nc2ccccn2)nc1 (single isomer, unassigned) [Example 108, 5-(1-Ethyl-6-fluoro-5-methoxyisoindolin-2-yl)-N-(pyridin-2-yl)pyrimidine-2-carboxamide]",560 nM
